Columns and labels:
[1] = test system: highly resistant strains of Pseudomonas aeruginosa; assay: MIC determination, all strains; assay type: cell-based; settings: highly resistant strains of P. aeruginosa
Method: (§1) The antibacterial activity of combinations according to the invention against resistant bacterial strains was investigated. Minimum Inhibitory Concentration (MIC) determination for the combinations according to invention was carried out in Muller Hinton Agar (MHA) (BD, USA) according to Clinical and Laboratory Standards Institute (CLSI) recommendations, (Clinical and Laboratory Standards Institute (CLSI), Performance Standards for Antimicrobial Susceptibility Testing, 20th Informational Supplement, M 100-S20, Volume 30, No. 1, 2010). In short, the test strains were adjusted to deliver about 10^4 CFU per spot with a multipoint inoculator (Applied Quality Services, UK). The plates were pored with MHA containing doubling concentration range of the test combinations according to invention. The plates were inoculated and were incubated at 35° C. for 18 hours.
The results on antibacterial activity of a carbapenem antibacterial agent selected from imipenem, meropenem, ertapenem and doripenem alone and in combination with Compound A or Compound B, against highly resistant strains of Pseudomonas aeruginosa are given in Table 1. […] For example, P. aeruginosa 2779 harbors resistance due to increased AmpC expression (300 times) and increased efflux; P. aeruginosa 1405 harbors resistance due to increased AmpC expression (600 times), reduced OprD expression and increased efflux; P. aeruginosa R 70 harbors resistance due to reduced OprD expression and increased efflux; and P. aeruginosa J 154 harbors resistance due to reduced OprD.

[2] = test system: P. aeruginosa R 70; assay: MIC determination in Muller Hinton Agar (CLSI); assay type: cell-based, Pseudomonas aeruginosa;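 on MIC (mcg/ml) of carbapenem in presence of [A] at 4 mcg/ml: MIC read as lowest concentration giving complete growth inhibition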;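 on MIC (mcg/ml) of carbapenem in presence of [B] at 4 mcg/ml: MIC read as lowest concentration giving complete growth inhibition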
Method: as §1

[3] = test system: P. aeruginosa 1405; assay: MIC determination in Muller Hinton Agar (CLSI); assay type: cell-based, Pseudomonas aeruginosa;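 further: MIC read as lowest concentration giving complete growth inhibition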
Method: as §1

[4] = test system: P. aeruginosa J 154; assay: MIC determination in Muller Hinton Agar (CLSI); assay type: cell-based, Pseudomonas aeruginosa
Method: as §1

[5] = test system: P. aeruginosa 2779; assay: MIC determination in Muller Hinton Agar (CLSI); assay type: cell-based, Pseudomonas aeruginosa;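 further: MIC read as lowest concentration giving complete growth inhibition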
Method: as §1

[6] = test system: Pseudomonas aeruginosa 1405; assay: Time kill study; assay type: cell-based; settings: P. aeruginosa 1405; for Bacterial count (Log10 CFU/ml) 0 hour / Bacterial count (Log10 CFU/ml) 2 hour / Bacterial count (Log10 CFU/ml) 4 hour / Bacterial count (Log10 CFU/ml) 6 hour: single agent 4 mcg/ml
Method: (§2) The synergistic killing effect of the combinations according to invention was studied by performing time kill studies. In a typical time kill study, the freshly grown cultures were diluted to the required cell density (initial starting inoculum) in Cation adjusted Muller Hinton broth medium (BD, USA). The antibacterial agents (either alone or in combination) at the required concentrations were added into the culture-containing medium. The samples were incubated under shaking condition (120 rpm) at 37° C. Enumeration of viable bacterial count was done every 2 hour by diluting in normal saline and plating on to the Tryptic Soya Agar plates (BD, USA). The plates were incubated for 24 hours to arrive at the viable bacterial count. The results are expressed in terms of Log10 CFU per ml. In general, the decrease of 1 Log10 CFU/ml, corresponds to 90% killing of bacteria.

[7] = test system: Pseudomonas aeruginosa R70; assay: Time kill study; assay type: cell-based; settings: P. aeruginosa R70
Method: as §2

[8] = in presence of Compound A at 4 mcg/ml
[9] = in presence of Compound B at 4 mcg/ml

With `C[C@@H](O)[C@H]1C(=O)N2C(C(=O)O)=C(S[C@@H]3CN[C@H](C(=O)N(C)C)C3)[C@H](C)[C@H]12` [Meropenem, meropenem] the “MIC values (in words)” value ([1]; in presence of Compound A or Compound B) was “decreased significantly”, the “MIC values (in words)” value ([1]; when used alone) was “higher MIC values” and the MIC ([2]; Pseudomonas aeruginosa, R70, 18 h, agent alone, P. aeruginosa R 70 [Reduced OprD + increased efflux]) was > 32 µg/mL. The “MIC (mcg/ml) of carbapenem in presence of [A] at 4 mcg/ml” value (from here on “MIC (mcg/ml) … [A] at 4 mcg/ml”) ([2]; in presence of Compound A at 4 mcg/ml, P. aeruginosa R 70) was 16 µg/mL, the “MIC (mcg/ml) of carbapenem in presence of [B] at 4 mcg/ml” value (“MIC (mcg/ml) … [B] at 4 mcg/ml” for short) ([2]; in presence of Compound B at 4 mcg/ml, P. aeruginosa R 70) was ≤0.12 µg/mL and the “MIC (mcg/ml) … [A] at 4 mcg/ml” value [3, 8] was 4 µg/mL. For the same compound, the “MIC (mcg/ml) … [B] at 4 mcg/ml” value [3, 9] was 0.12 µg/mL, the MIC ([4]; Pseudomonas aeruginosa, J154, agent alone, P. aeruginosa J 154 [Reduced OprD]) was 16 µg/mL and the “MIC (mcg/ml) … [A] at 4 mcg/ml” value ([4]; in presence of Compound A at 4 mcg/ml, P. aeruginosa J 154) was 8 µg/mL. The “MIC (mcg/ml) … [B] at 4 mcg/ml” value ([4]; in presence of Compound B at 4 mcg/ml, P. aeruginosa J 154) was <0.25 µg/mL, the “MIC (mcg/ml) … [A] at 4 mcg/ml” value [5, 8] was 0.12 µg/mL and the “MIC (mcg/ml) … [B] at 4 mcg/ml” value [5, 9] was 0.12 µg/mL. The “effect on bacterial counts through out the duration of the study (in words)” value ([6]; when used alone) was “failed to reduce the bacterial counts”, the “Bacterial count (Log10 CFU/ml) 0 hour” value ([6]; Table 2) was 6.84 Log10 CFU/ml and the “Bacterial count (Log10 CFU/ml) 2 hour” value ([6]; Table 2) was 5.95 Log10 CFU/ml. The “Bacterial count (Log10 CFU/ml) 4 hour” value ([6]; Table 2) was 6.89 Log10 CFU/ml, the “Bacterial count (Log10 CFU/ml) 6 hour” value ([6]; Table 2) was 7.02 Log10 CFU/ml and the “Bacterial count (Log10 CFU/ml) 0 hour” value ([6]; Table 3) was 6.81 Log10 CFU/ml. For the same compound, the “Bacterial count (Log10 CFU/ml) 2 hour” value ([6]; Table 3) was 6.8 Log10 CFU/ml, the “Bacterial count (Log10 CFU/ml) 4 hour” value ([6]; Table 3) was 7.0 Log10 CFU/ml and the “Bacterial count (Log10 CFU/ml) 6 hour” value ([6]; Table 3) was 7.3 Log10 CFU/ml. For the same compound, the “effect on bacterial counts through out the duration of the study (in words)” value ([7]; when used alone) was “failed to reduce the bacterial counts”, the “Bacterial count (Log10 CFU/ml) 0 hour” value ([7]; Table 4, single agent 4 mcg/ml) was 6.62 Log10 CFU/ml and the “Bacterial count (Log10 CFU/ml) 2 hour” value ([7]; Table 4, single agent 4 mcg/ml) was 7.07 Log10 CFU/ml. The “Bacterial count (Log10 CFU/ml) 4 hour” value ([7]; Table 4, single agent 4 mcg/ml, 4 hour) was 6.84 Log10 CFU/ml, the “Bacterial count (Log10 CFU/ml) 6 hour” value ([7]; Table 4, single agent 4 mcg/ml) was 8.36 Log10 CFU/ml and the “Bacterial count (Log10 CFU/ml) 0 hour” value ([7]; Table 5, single agent 4 mcg/ml) was 6.44 Log10 CFU/ml. The “Bacterial count (Log10 CFU/ml) 2 hour” value ([7]; Table 5, single agent 4 mcg/ml) was 6.14 Log10 CFU/ml, the “Bacterial count (Log10 CFU/ml) 4 hours” value ([7]; Table 5, single agent 4 mcg/ml, 4 hours) was 7.07 Log10 CFU/ml and the “Bacterial count (Log10 CFU/ml) 6 hour” value ([7]; Table 5, single agent 4 mcg/ml) was 7.3 Log10 CFU/ml.

Reference: US20180104224A1, “PHARMACEUTICAL COMPOSITIONS COMPRISING ANTIBACTERIAL AGENTS” (priority 2014, published 2018)
